Data: patent publication US20240400560A1, “BICYCLIC HETEROCYCLIC DERIVATIVE HAVING VIRAL GROWTH INHIBITORY ACTIVITY AND PHARMACEUTICAL COMPOSITION CONTAINING SAME” (Shionogi & Co., Ltd., priority 2021, published 2024)
pEC50, pIC50: −log10 of the molar value. Like-named read-outs stand apart in the source and are kept apart here.

How the values were obtained:
SARS-CoV-2 = assay: Inhibitory activity of cytopathic effect (CPE) in HEK293T/ACE2-TMPRSS2 cells; format: cell-based; settings: Severe acute respiratory syndrome coronavirus 2, HEK-293T, 72 h
SARS-CoV-2 3CL protease = SARS-CoV-2 3CL protease (Severe acute respiratory syndrome coronavirus 2, UniProt P0DTD1); assay: Inhibitory activity test against SARS-CoV-2 3CL proteases; format: biochemical
[1] = HEK293T/ACE2-TMPRSS2 cells, cultured 3 days, CellTiter-Glo 2.0 luminescence, read-out: EC50 (50% SARS-CoV-2 infected cell death inhibitory concentration)
[2] = read-out: IC50 (50% SARS-CoV-2 3CL protease inhibitory concentration)
[3] = 50% SARS-CoV-2 infected cell death inhibitory concentration, HEK293T/ACE2-TMPRSS2 cells, CellTiter-Glo 2.0 after 3 days culture, read-out: EC50
[4] = read-out: EC50 (50% SARS-CoV-2 infected cell death inhibitory concentration)
[5] = IC50 (50% SARS-CoV-2 3CL protease inhibitory concentration)

SMILES | pEC50 (SARS-CoV-2; [1]) | pIC50 (SARS-CoV-2 3CL protease; [2]) | also measured
Cn1cnc(Cn2c(=O)c3c4nccnc4c(N4CC(F)C4)cc3n(Cc3cc(F)c(F)c(Cl)c3)c2=O)n1 [Compound I-0573] | > 7.00 | > 7.00 | 
[2H]C([2H])([2H])O[C@@H]1CCN(c2cc3c(c(OC)n2)c(=O)n(-c2cc(C)cnn2)c(=O)n3-c2ccc(F)c(Cl)c2)C1 [Compound I-0972] | > 7.00 | > 7.00 | 
Cn1cnc(Cn2c(=O)c3c4nccnc4c(N4CCC(F)(F)C4)cc3n(Cc3cc(F)c(F)c(Cl)c3)c2=O)n1 [Compound I-0813] | > 7.00 | > 7.00 | 
COc1nc(N2C[C@@H]3[C@H](C2)C3(F)F)cc2c1c(=O)n(-c1cnc3cc(F)ccn13)c(=O)n2-c1ccc(F)c(Cl)c1 [Compound I-0759] | > 7.00 | > 7.00 | 
COc1nc(N2CC(C)(OC)C2)cc2c1c(=O)n(-c1cnc3cc(F)ccn13)c(=O)n2-c1ccc(F)c(Cl)c1 [Compound I-0762] | > 7.00 | > 7.00 | 
Cn1cnc(Cn2c(=O)c3c4c(c(-c5cnccc5Cl)cc3n(Cc3cc(F)c(F)c(Cl)c3)c2=O)CCO4)n1 [Compound I-0563] | > 7.00 | > 7.00 | 
COc1nc(N2C[C@@H]3C[C@H]2CO3)cc2c1c(=O)n(-c1cnc3cc(F)ccn13)c(=O)n2-c1ccc(F)c(F)c1 [Compound I-0978] |  | 8.32 | pEC50 (SARS-CoV-2; [3]): 7.93
COc1nc(N2CCC2)cc2c1c(=O)n(-c1cnc3cc(F)ccn13)c(=O)n2-c1ccc(F)c(Cl)c1 [Compound I-1002] | > 7.00 | > 7.00 | 
COc1nc(N2CC[C@@H](F)C2)cc2c1c(=O)n(Cc1ncn(C)n1)c(=O)n2-c1cc(C)c(F)c(Cl)c1 [Compound I-0805] | > 7.00 | > 7.00 | 
COc1nc2c(=O)n(Cc3ncn(C)n3)c(=O)n(Cc3cc(F)c(F)c(Cl)c3)c2cc1-c1nc(C(=O)NC2(C)COC2)ccc1Cl [Compound I-0886] | > 7.00 | > 7.00 | 
C=C(C)c1cc2c(c(OC)n1)c(=O)n(-c1cnc3cc(F)ccn13)c(=O)n2-c1ccc(F)c(Cl)c1 [Compound I-1019] |  | 7.96 | pEC50 (SARS-CoV-2; [3]): 6.24
COc1cc(-c2cc3nc(C(F)F)[nH]c3cc2Cl)cc2c1c(=O)n(Cc1ncn(C)n1)c(=O)n2Cc1cc(F)c(F)c(F)c1 [Compound I-0848] | 6.00 to 7.00 | > 7.00 | 
COc1nc(N2CC[C@H](OC)C2)cc2c1c(=O)n(-c1cnc3cc(F)ccn13)c(=O)n2-c1ccc(F)c(Cl)c1 [Compound I-0742] | > 7.00 | > 7.00 | 
[2H]C([2H])([2H])O[C@@H]1CCN(c2cc3c(c(OC)n2)c(=O)n(-c2cnc4cc(F)ccn24)c(=O)n3-c2cc(F)c(F)c(Cl)c2)C1 [Compound I-0942] | > 7.00 | > 7.00 | 
COc1nc(N2CC[C@@H](O)C2)cc2c1c(=O)n(-c1cncc(OCF)c1)c(=O)n2-c1ccc(F)c(Cl)c1 [Compound I-0956] | > 7.00 | > 7.00 | 
Cn1cnc(Cn2c(=O)c3c4nccnc4c(-c4cc(C(C)(C)O)ccc4Cl)cc3n(Cc3cc(F)c(F)c(Cl)c3)c2=O)n1 [Compound I-0810] |  | 8.89 | pEC50 (SARS-CoV-2; [3]): 7.71
[2H]C([2H])([2H])O[C@@H]1CCN(c2cc3c(c(OC)n2)c(=O)n(-c2cnc4cc(F)ccn24)c(=O)n3-c2ccc(F)c(Cl)c2)C1 [Compound I-0751] | > 7.00 | > 7.00 | 
C=Cc1nc2c(=O)n(Cc3ncn(C)n3)c(=O)n(Cc3cc(F)c(F)c(F)c3)c2cc1-c1cc(C#N)ccc1Cl [Compound I-0705] | > 7.00 | > 7.00 | 
Cc1cncc(-n2c(=O)c3c(n(Cc4cc(F)c(F)c(F)c4)c2=O)CN(c2cc(C#N)ccc2Cl)CC3)c1 [Compound I-0658] | 6.00 to 7.00 | 6.00 to 7.00 | 
CCNc1cc2c(c(OC)n1)c(=O)n(-c1cncc(Cl)c1)c(=O)n2-c1ccc(F)c(Cl)c1 [Compound I-0966] |  | 8.42 | pEC50 (SARS-CoV-2; [3]): 8.05
COc1cc(-c2ncccc2Cl)cc2c1c(=O)n(Cc1ncn(C)n1)c(=O)n2Cc1cc(F)c(F)c(F)c1 [Compound I-0838] | 6.00 to 7.00 | > 7.00 | 
O=c1c2c(=O)n(-c3cnc4cc(F)ccn34)c(=O)n(-c3ccc(F)c(Cl)c3)c2cc2n1C[C@@H]1CCCN21 [Compound I-0628] |  | 7.59 | pEC50 (SARS-CoV-2; [3]): 6.18
COc1nc(N2C3CCC(O)C2CC3)cc2c1c(=O)n(Cc1ncn(C)n1)c(=O)n2Cc1cc(F)c(F)c(F)c1 (centres unmarked) [Compound I-0610] |  |  | pEC50 (SARS-CoV-2; [4]): > 7.00; pIC50 (SARS-CoV-2 3CL protease; [5]): > 7.00
O=c1c2cnc(N3[C@@H]4CC[C@H]3CNC4)cc2n(Cc2cc(F)c(F)c(Cl)c2)c(=O)n1-c1cnc2ccccn12 [Compound I-0547] |  |  | pEC50 (SARS-CoV-2; [4]): > 7.00; pIC50 (SARS-CoV-2 3CL protease; [5]): > 7.00
[2H]C([2H])([2H])O[C@@H]1CCN(c2cc3c(c(OC)n2)c(=O)n(-c2cnc4cc(F)ccn24)c(=O)n3-c2ccc(F)c(F)c2)C1 [Compound I-1005] |  | 8.05 | pEC50 (SARS-CoV-2; [3]): 8.06

SMILES | pEC50 (SARS-CoV-2; [1]) | pIC50 (SARS-CoV-2 3CL protease; [2]) | also measured
[2H]C([2H])([2H])O[C@@H]1CCN(c2cc3c(c(OC)n2)c(=O)n(-c2cncc(OCF)c2)c(=O)n3-c2ccc(F)c(F)c2)C1 [Compound I-1012] | > 7.00 | > 7.00 | 
COC[C@H]1CCCN1c1cc2c(c(OC)n1)c(=O)n(-c1cnc3cc(F)ccn13)c(=O)n2-c1ccc(F)c(Cl)c1 [Compound I-1050] | > 7.00 | > 7.00 | 
COc1nc(N2CCC(O)(CF)C2)cc2c1c(=O)n(-c1cncc(Cl)c1)c(=O)n2-c1ccc(F)c(Cl)c1 (centres unmarked) [Compound I-1004] | > 7.00 | > 7.00 | 
COc1nc(N(C)C(C)C)cc2c1c(=O)n(-c1cnc3cc(F)ccn13)c(=O)n2-c1ccc(F)c(Cl)c1 [Compound I-1034] | > 7.00 | > 7.00 | 
COc1nc(N2[C@@H]3CC[C@H]2CNC3)cc2c1c(=O)n(-c1cnc3ccccn13)c(=O)n2Cc1cc(F)c(F)c(F)c1 [Compound I-0646] |  |  | pEC50 (SARS-CoV-2; [4]): > 7.00; pIC50 (SARS-CoV-2 3CL protease; [5]): > 7.00
COc1nc(-c2cc(C#N)ccc2Cl)cc2c1c(=O)n(-c1cnc3ccc(F)cn13)c(=O)n2Cc1cc(F)c(F)c(F)c1 [Compound I-0680] | > 7.00 | > 7.00 | 
COc1nc(N2C[C@@H](F)[C@@H](OC)C2)cc2c1c(=O)n(-c1cnc3cc(F)ccn13)c(=O)n2-c1ccc(F)c(Cl)c1 [Compound I-1052] | > 7.00 | > 7.00 | 
COc1nc(N2CC[C@@H](C#N)C2)cc2c1c(=O)n(-c1cncc(OC(F)F)c1)c(=O)n2-c1ccc(F)c(F)c1 [Compound I-0995] | > 7.00 | > 7.00 | 
COc1nc(N2[C@@H]3CC[C@H]2CNC3)cc2c1c(=O)n(-c1cnc3cc(F)c(Cl)cn13)c(=O)n2-c1ccc(F)c(Cl)c1 [Compound I-0950] |  |  | pEC50 (SARS-CoV-2; [4]): > 7.00; pIC50 (SARS-CoV-2 3CL protease; [5]): > 7.00
CCn1cnc(Cn2c(=O)c3c(OC)nc(N4CC[C@@H](F)C4)cc3n(Cc3cc(F)c(F)c(F)c3)c2=O)n1 [Compound I-0927] | > 7.00 | > 7.00 | 
COc1nc(N2CCC(F)(F)C2)cc2c1c(=O)n(-c1cnc3ccccn13)c(=O)n2-c1ccc(F)c(Cl)c1 [Compound I-0808] | > 7.00 | > 7.00 | 
COc1nc(N2C[C@@H](F)[C@@H](F)C2)cc2c1c(=O)n(-c1cnc3cc(F)ccn13)c(=O)n2-c1ccc(F)c(F)c1 [Compound I-1020] | > 7.00 | > 7.00 | 
[2H]C([2H])([2H])O[C@@H]1CCN(c2cc3c(c(OC)n2)c(=O)n(-c2cncc(Cl)c2C)c(=O)n3-c2ccc(F)c(Cl)c2)C1 (atropisomer, axis not shown) [Compound I-0947] |  | 8.64 | pEC50 (SARS-CoV-2; [3]): 8.20
Cn1cnc(Cn2c(=O)c3c(cc(-c4cc(C#N)ccc4Cl)n4nnnc34)n(Cc3cc(F)c(F)c(F)c3)c2=O)n1 [Compound I-0639] | 6.00 to 7.00 | > 7.00 | 
COc1nc(N2[C@@H]3CC[C@H]2CNC3)cc2c1c(=O)n(-c1cc(C)cnn1)c(=O)n2Cc1cc(F)c(F)c(F)c1 [Compound I-0926] |  |  | pEC50 (SARS-CoV-2): 6.97; pIC50 (SARS-CoV-2 3CL protease; [5]): 8.29
COc1nc2c(=O)n(Cc3ncn(C)n3)c(=O)n(Cc3cc(F)c(F)c(Cl)c3)c2cc1-c1nc(C(F)F)ccc1Cl [Compound I-0879] | > 7.00 | > 7.00 | 
COc1nc(N2C[C@H]3C[C@@H]2CO3)cc2c1c(=O)n(-c1cnc3cc(F)ccn13)c(=O)n2-c1ccc(F)c(Cl)c1 [Compound I-0989] | > 7.00 | > 7.00 | 
COc1nc(N2CC[C@@H](C#N)C2)cc2c1c(=O)n(-c1cnc3cc(F)c(F)cn13)c(=O)n2-c1ccc(F)c(Cl)c1 [Compound I-0946] | > 7.00 | > 7.00 | 
COc1nc(N2CC(F)(F)C2)cc2c1c(=O)n(-c1cnc3cc(F)ccn13)c(=O)n2-c1ccc(F)c(Cl)c1 [Compound I-1035] | > 7.00 |  | pIC50 (SARS-CoV-2 3CL protease; [5]): > 7.00
COc1cc(-c2cc3cc[nH]c3cc2Cl)cc2c1c(=O)n(Cc1ncn(C)n1)c(=O)n2Cc1cc(F)c(F)c(F)c1 [Compound I-0901] | > 7.00 | > 7.00 | 
CCCn1c(-c2cc(C#N)ccc2Cl)cc2c(c1=O)c(=O)n(-c1cncc(Cl)c1)c(=O)n2Cc1cc(F)c(F)c(F)c1 [Compound I-0686] |  | 8.77 | pEC50 (SARS-CoV-2; [3]): 7.65
Cn1cnc(Cn2c(=O)c3c4ncn(C)c4c(-c4cc(C#N)ccc4Cl)cc3n(Cc3cc(F)c(F)c(F)c3)c2=O)n1 [Compound I-0556] |  | 9.03 | pEC50 (SARS-CoV-2; [3]): 6.42
CCNC(=O)[C@@H]1CCN(c2cc3c(c(OC)n2)c(=O)n(-c2cnc4cc(F)ccn24)c(=O)n3-c2ccc(F)c(Cl)c2)C1 [Compound I-0626] |  | 7.85 | pEC50 (SARS-CoV-2; [3]): 7.26
Cn1cnc(Cn2c(=O)c3c4c(c(-c5cc(C#N)ccc5Cl)cc3n(Cc3cc(F)c(F)c(F)c3)c2=O)C(F)(F)CO4)n1 [Compound I-0866] |  | 8.19 | pEC50 (SARS-CoV-2; [3]): 7.81
